Measured values from ChEMBL document CHEMBL3871292, “Evaluation of dipeptide nitriles as inhibitors of rhodesain, a major cysteine protease of Trypanosoma brucei” (Bioorg Med Chem Lett, 2017).

Assays:
[1] = tested on: Trypanosoma brucei; experiment: Inhibition of Trypanosoma brucei rhodesain using Cbz-Phe-Arg-AMC as substrate at 20 uM by fluorescence-based assay
[2] = Inhibition of Trypanosoma brucei rhodesain using Cbz-Phe-Arg-AMC as substrate by fluorescence-based assay
[3] = tested on: Trypanosoma brucei brucei; experiment: Antitrypanosomal activity against Trypanosoma brucei brucei BS449 measured after 24 hrs using ATPlite-1 reagent by cell based luciferase reporter gene assay; type: functional; conditions: BS449, 24 h
[4] = tested on: Trypanosoma brucei brucei; experiment: Antitrypanosomal activity against Trypanosoma brucei brucei Trypanosoma brucei brucei BS449 measured after 48 hrs using ATPlite-1 reagent by cell based luciferase reporter gene assay; type: functional; conditions: BS449, 48 h
[5] = tested on: Trypanosoma brucei brucei; experiment: Antitrypanosomal activity against Trypanosoma brucei brucei BS449 measured after 72 hrs using ATPlite-1 reagent by cell based luciferase reporter gene assay; type: functional
[6] = tested on: Trypanosoma brucei; experiment: Inhibition of Trypanosoma brucei rhodesain using Cbz-Phe-Arg-AMC as substrate at 0.05 to 20 uM by fluorescence-based assay; conditions: TDE = time-dependent effect
[7] = target: Procathepsin L (Homo sapiens, UniProt P07711); experiment: Inhibition of human cathepsin L using Z-Phe-Arg-pNA as substrate measured after 10 to 80 mins by spectrophotometric method
Sequence of Procathepsin L (P07711 whole entry): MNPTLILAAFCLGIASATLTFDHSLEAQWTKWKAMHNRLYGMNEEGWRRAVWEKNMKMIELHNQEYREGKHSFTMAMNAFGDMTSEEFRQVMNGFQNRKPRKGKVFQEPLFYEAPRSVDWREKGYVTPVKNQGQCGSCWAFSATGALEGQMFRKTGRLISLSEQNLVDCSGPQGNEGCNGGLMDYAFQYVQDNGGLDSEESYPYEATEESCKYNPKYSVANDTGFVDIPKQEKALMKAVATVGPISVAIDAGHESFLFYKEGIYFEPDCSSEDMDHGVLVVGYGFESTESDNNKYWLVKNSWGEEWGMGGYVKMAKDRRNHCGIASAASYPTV

[8] = Stability of the compound in HMI-9 medium measured after 48 hrs; type: physicochemical
[9] = Inhibition of Trypanosoma brucei rhodesain using 10 uM of Cbz-Phe-Arg-AMC as substrate by Cheng-Prusoff equation analysis
[10] = Competitive inhibition of Trypanosoma brucei rhodesain in presence of varying levels of Cbz-Phe-Arg-AMC substrate by Cheng-Prusoff equation analysis
[11] = Solubility of the compound in PBS; type: physicochemical; conditions: buffer
[12] = Solubility of the compound in HMI-9 medium; type: physicochemical
[13] = Selectivity index, ratio of Ki for human cathepsin L to Ki for competitive inhibition of Trypanosoma brucei rhodesain
[14] = Trypanosoma brucei, BS449, 72 h, read-out: EC50
[15] = Trypanosoma brucei, BS449, 72 h, read-out: pEC50 (converted)

CN(C)c1cccc2c(S(=O)(=O)NC3(C(=O)NCC#N)CCCCC3)cccc12
inhibition [1]: 11%

CC(C)CS(=O)(=O)CC(NC(=O)c1ccc(-c2ccsc2)s1)C(=O)NCC#N (racemic)
inhibition [1]: 29%

CC(C)CS(=O)(=O)CC(NC(=O)c1ccc(-c2ccccc2)s1)C(=O)NCC#N (racemic)
inhibition [1]: 37%

CC(C)(C)OC(=O)N[C@H](C(=O)NCC#N)c1ccccc1
inhibition [1]: > 50% | Ki [2]: 795 nM

CC(C)(C)OC(=O)N[C@@H](Cc1ccc(Br)cc1)C(=O)NCC#N
EC50 ([3]; read-out: EC50): 43000 nM | EC50 ([4]; read-out: EC50): 104000 nM | EC50 [5, 14]: 129000 nM | EC50 [5, 15]: 130000 nM | inhibition [1]: > 50% | inhibition [6]: Tde | Ki [2]: 12.3 nM

N#CCNC(=O)C1(NC(=O)OCc2ccccc2)CCCCC1
inhibition [1]: 22% | Ki [7]: > 5000 nM

N#CCNC(=O)[C@H](Cc1ccc(O)cc1)NC(=O)OCc1ccccc1
inhibition [1]: > 50% | Ki [2]: 44.6 nM

CC(C)CS(=O)(=O)CC(NC(=O)c1ccc(-c2cccs2)cc1)C(=O)NCC#N (racemic)
inhibition [1]: 25%

CC(C)CS(=O)(=O)CC(NC(=O)c1cccs1)C(=O)NCC#N (racemic)
inhibition [1]: 9%

CC(C)CS(=O)(=O)CC(NC(=O)c1ccc(-c2cccs2)s1)C(=O)NCC#N (racemic)
inhibition [1]: > 50% | Ki [2]: 900 nM

CC(C)C[C@H](NC(=O)Nc1ccc(-c2noc(-c3cccs3)n2)cc1)C(=O)NCC#N
inhibition [1]: > 50% | Ki [2]: 172 nM

CC(C)(C)OC(=O)N[C@@H](Cc1ccc(O)cc1)C(=O)NCC#N
inhibition [1]: > 50% | Ki [2]: 47 nM

CC(C)CS(=O)(=O)CC(NC(=O)c1ccc(-c2nnn[nH]2)s1)C(=O)NCC#N (racemic)
inhibition [1]: 16%

CC(C)(C)OC(=O)N[C@@H](Cc1ccsc1)C(=O)NCC#N
inhibition [1]: > 50% | Ki [2]: 387 nM

CC[C@H](C)[C@H](NC(=O)OC(C)(C)C)C(=O)NCC#N
inhibition [1]: > 50% | Ki [2]: 1470 nM

CC(C)(C)OC(=O)N[C@@H](CC1CCCCC1)C(=O)NCC#N
inhibition [1]: > 50% | Ki [2]: 68 nM

CC(C)(C)OC(=O)N[C@@H](Cc1ccccc1)C(=O)NCC#N
inhibition [1]: > 50% | Ki [2]: 55 nM

N#CCNC(=O)[C@H](Cc1ccccc1)NC(=O)OCc1ccccc1
EC50 ([3]; read-out: EC50): 63000 nM | Stability [8]: Unstable | EC50 ([4]; read-out: EC50): 79000 nM | EC50 [5]: Nd(Unstable) | inhibition [1]: > 50% | Ki [2]: 42 nM

COc1ccc(C[C@H](NC(=O)OCc2ccccc2)C(=O)NCC#N)cc1
inhibition [1]: > 50% | Ki [2]: 26 nM

CC(C)(C)OC(=O)N[C@@H](Cc1ccccc1F)C(=O)NCC#N
EC50 ([3]; read-out: EC50): 77000 nM | Stability [8]: Unstable | EC50 ([4]; read-out: EC50): 70000 nM | EC50 [5]: Nd(Unstable) | inhibition [1]: > 50% | Ki [2]: 49.2 nM

N#CCNC(=O)C1(NC(=O)c2ccc(-c3noc(-c4cccs4)n3)cc2)CCCCC1
inhibition [1]: > 50% | Ki [7]: > 5000 nM | Ki [2]: 1540 nM

CC(C)[C@H](NC(=O)OC(C)(C)C)C(=O)NCC#N
inhibition [1]: > 50% | Ki [2]: 1490 nM

CC(C)(C)OC(=O)N[C@@H](Cc1cccc(Br)c1)C(=O)NCC#N
inhibition [1]: > 50% | Ki [2]: 27.6 nM

CC(C)(C)OC(=O)N[C@@H](Cc1ccc(F)cc1)C(=O)NCC#N
EC50 ([3]; read-out: EC50): 169000 nM | EC50 ([4]; read-out: EC50): 105000 nM | EC50 [5, 14]: 217000 nM | EC50 [5, 15]: 217000 nM | inhibition [1]: > 50% | Ki [2]: 43.8 nM

CC(C)(C)OC(=O)N[C@@H](CC1CC1)C(=O)NCC#N
inhibition [1]: 30%

CCN(CC)c1ccc2cc(C(=O)NC3(C(=O)NCC#N)CCCCC3)c(=O)oc2c1
inhibition [1]: > 50% | Ki [2]: 790 nM

CSCC[C@H](NC(=O)OC(C)(C)C)C(=O)NCC#N
inhibition [1]: > 50% | Ki [2]: 1170 nM

CC(C)(C)OC(=O)N[C@@H](COCc1ccccc1)C(=O)NCC#N
inhibition [1]: > 50% | Ki [2]: 950 nM

CC[C@H](NC(=O)OC(C)(C)C)C(=O)NCC#N
inhibition [1]: 10%

CC(C)CS(=O)(=O)CC(NC(=O)c1cc2ccsc2s1)C(=O)NCC#N (racemic)
inhibition [1]: 25%

CC(C)CS(=O)(=O)CC(NC(=O)c1cc(-c2ccccc2)cs1)C(=O)NCC#N (racemic)
inhibition [1]: > 50% | Ki [2]: 820 nM

CN(C)c1cccc2c(S(=O)(=O)N[C@@H](Cc3ccccc3)C(=O)NCC#N)cccc12
inhibition [1]: > 50% | Ki [2]: 413 nM

CC(C)(C)OC(=O)N[C@@H](Cc1c[nH]c2ccccc12)C(=O)NCC#N
inhibition [1]: > 50% | Ki [2]: 125 nM

CC(C)(C)OC(=O)N[C@@H](Cc1csc2ccccc12)C(=O)NCC#N
inhibition [1]: > 50% | Ki [2]: 90 nM

CC(C)C[C@H](NC(=O)c1ccc(-c2noc(-c3cccs3)n2)cc1)C(=O)NCC#N
EC50 ([3]; read-out: EC50): 8000 nM | Ki [9]: 9.2 nM | Ki [10]: 5.3 nM | solubility [11]: Insoluble | EC50 ([4]; read-out: EC50): 10000 nM | solubility [12]: Insoluble | EC50 [5, 14]: 6000 nM | EC50 [5, 15]: 6190 nM | inhibition [1]: > 50% | Ratio Ki [13]: 200 | inhibition [6]: Tde

CCCC[C@H](NC(=O)OC(C)(C)C)C(=O)NCC#N
inhibition [1]: > 50% | Ki [2]: 750 nM

CC(C)CS(=O)(=O)CC(NC(=O)c1cc2ccccc2s1)C(=O)NCC#N (racemic)
inhibition [1]: 15%

N#CCNC(=O)[C@H](Cc1cccc(Br)c1)NC(=O)c1ccc(-c2ccccc2)cc1
Ki [9]: 9.2 nM | Ki [10]: 2.6 nM | inhibition [1]: > 50% | Ratio Ki [13]: 200 | inhibition [6]: Tde

CC(C)(C)OC(=O)N[C@@H](Cc1cccc(F)c1)C(=O)NCC#N
inhibition [1]: > 50% | Ki [2]: 73.8 nM

CC(C)(C)OC(=O)N[C@@H](Cc1ccco1)C(=O)NCC#N
inhibition [1]: > 50% | Ki [2]: 615 nM

CC(C)(C)OC(=O)N[C@H](CC(=O)NC#N)Cc1ccccc1
inhibition [1]: > 50% | Ki [2]: 1270 nM

N=C(NCCCCCCNC(=N)NC(=N)Nc1ccc(Cl)cc1)NC(=N)Nc1ccc(Cl)cc1 [CHLORHEXIDINE]
EC50 ([3]; read-out: EC50): 440 nM | EC50 ([3]; read-out: pEC50 (converted)): 441 nM | EC50 ([4]; read-out: EC50): 321 nM | EC50 ([4]; read-out: pEC50 (converted)): 321 nM | EC50 [5, 14]: 349 nM | EC50 [5, 15]: 350 nM

CC(C)(C)OC(=O)N[C@@H](Cc1ccc(-c2ccccc2)cc1)C(=O)NCC#N
inhibition [1]: > 50% | Ki [2]: 52 nM
